Laboratory results taken from PMC8286840, “Identifying SARS-CoV-2 antiviral compounds by screening for small molecule inhibitors of Nsp3 papain-like protease” (Biochemical Journal, 2021).
Structures can show the parent of a compound that is named as a salt. Where two headings read alike, the source gives them in different places.

Legend:
[1] = target: T1, SARS-CoV-2 PLpro (nsp3 1564–1878) (Severe acute respiratory syndrome coronavirus 2, UniProt P0DTD1); test: biochemical; parameters: FRET-quenched peptide (Pro3) cleavage by PLpro, 10 min pre-incubation, slope over 20 min, normalised to no-compound control; conditions: low concentration screen, read-out: % of control remaining
[2] = target: T1, SARS-CoV-2 PLpro (nsp3 1564–1878); test: biochemical; parameters: FRET-quenched peptide (Pro3) cleavage by PLpro, 10 min pre-incubation, slope over 20 min, normalised to no-compound control; conditions: high concentration screen, read-out: % of control remaining

## O=C1CCc2ccc(OCCCCN3CCN(c4cccc(Cl)c4Cl)CC3)cc2N1 [Aripiprazole]
[1]; Well no.=1844
  remaining activity at 1.25 µM: 93.9%
[1]; Well no.=8237
  remaining activity at 1.25 µM: 102%
[2]; Well no.=1844
  remaining activity at 3.75 µM: 95.9%
[2]; Well no.=8237
  remaining activity at 3.75 µM: 95.5%

## COc1ccc(C[C@@H](C)NC[C@H](O)c2ccc(O)c(NC=O)c2)cc1 [Formoterol hemifumarate]
[1]; Well no.=5014
  remaining activity at 1.25 µM: 109%
[2]; Well no.=5014
  remaining activity at 3.75 µM: 104%

## NC(=O)c1noc([C@H](CCCC2CCCCC2)CC(=O)NO)n1 [UK-383,367]
[1]; Well no.=5839
  remaining activity at 1.25 µM: 102%
[2]; Well no.=5839
  remaining activity at 3.75 µM: 103%

## C[C@H]1[C@H](C)CC[C@]2(C(=O)O)CC[C@]3(C)C(=CC[C@@H]4[C@@]5(C)CCC(=O)C(C)(C)[C@@H]5CC[C@]43C)[C@H]12 [Ursonic acid]
[1]; Well no.=6448
  remaining activity at 1.25 µM: 98.3%
[2]; Well no.=6448
  remaining activity at 3.75 µM: 98.4%

## CC(C)(C#N)c1ccc(N2C(=O)OCc3cnc4ccc(-c5cnc6ccccc6c5)cc4c32)cc1 [ETP-46464]
[1]; Well no.=5557
  remaining activity at 1.25 µM: 101%
[2]; Well no.=5557
  remaining activity at 3.75 µM: 97.9%

## C=CCc1ccc(O)c(-c2ccc(O)c(CC=C)c2)c1 [Honokiol]
[1]; Well no.=3621
  remaining activity at 1.25 µM: 97.6%
[2]; Well no.=3621
  remaining activity at 3.75 µM: 93.8%

## O=C(/C=C/c1ccc(O)cc1)CC(=O)/C=C/c1ccc(O)cc1 [Bisdemethoxycurcumin]
[1]; Well no.=6536
  remaining activity at 1.25 µM: 97.5%
[2]; Well no.=6536
  remaining activity at 3.75 µM: 92.4%

## Cc1nc(-c2ccc(-c3ccc(C(=O)N4CCc5cc6c(cc54)C4(CCN(C)CC4)CO6)cc3)c(C)c2)no1 [SB 224289 hydrochloride]
[1]; Well no.=1423
  remaining activity at 1.25 µM: 96.6%
[2]; Well no.=1423
  remaining activity at 3.75 µM: 97.3%

## Oc1cccc(-c2nc(N3CCOCC3)c3oc4ncccc4c3n2)c1 [PI-103]
[1]; Well no.=2367
  remaining activity at 1.25 µM: 100%
[2]; Well no.=2367
  remaining activity at 3.75 µM: 100%

## O=c1[nH]cnc2c1ncn2[C@H]1CC[C@@H](CO)O1 [Didanosine]
[1]; Well no.=1868
  remaining activity at 1.25 µM: 97.7%
[2]; Well no.=1868
  remaining activity at 3.75 µM: 104%

## COc1ccc(CNCc2cccc3ccccc23)cc1 [ML133 HCl]
[1]; Well no.=4793
  remaining activity at 1.25 µM: 97.9%
[2]; Well no.=4793
  remaining activity at 3.75 µM: 96.1%

## CC(=O)c1c(O)c(C)c(O)c(Cc2c(O)c3c(c(C(=O)/C=C/c4ccccc4)c2O)OC(C)(C)C=C3)c1O [Rottlerin]
[1]; Well no.=1206
  remaining activity at 1.25 µM: 103%
[2]; Well no.=1206
  remaining activity at 3.75 µM: 102%

## CC(=O)OCC(=O)[C@@]1(O)CC[C@H]2[C@@H]3CCC4=CC(=O)C=C[C@]4(C)[C@H]3[C@@H](O)C[C@@]21C [Prednisolone acetate]
[1]; Well no.=5859
  remaining activity at 1.25 µM: 102%
[2]; Well no.=5859
  remaining activity at 3.75 µM: 95.6%

## C[C@@H]1O[C@@H](OC[C@H]2O[C@@H](Oc3cc(O)c4c(=O)cc(-c5ccc(O)cc5)oc4c3)[C@H](O)[C@@H](O)[C@@H]2O)[C@H](O)[C@H](O)[C@H]1O [Isorhoifolin]
[1]; Well no.=3297
  remaining activity at 1.25 µM: 99.4%
[2]; Well no.=3297
  remaining activity at 3.75 µM: 104%

## CC(C)CN(C[C@@H](O)[C@H](Cc1ccccc1)NC(=O)O[C@H]1CCOC1)S(=O)(=O)c1ccc(N)cc1 [Amprenavir]
[1]; Well no.=2242
  remaining activity at 1.25 µM: 101%
[1]; Well no.=8648
  remaining activity at 1.25 µM: 94.1%
[2]; Well no.=2242
  remaining activity at 3.75 µM: 102%
[2]; Well no.=8648
  remaining activity at 3.75 µM: 95.7%

## Nc1cc(-c2ccncc2)c[nH]c1=O [amrinone]
[1]; Well no.=2146
  remaining activity at 1.25 µM: 102%
[2]; Well no.=2146
  remaining activity at 3.75 µM: 100%

## CN(C(=O)c1c(O)c2ccccc2n(C)c1=O)c1ccccc1 [Roquinimex]
[1]; Well no.=6160
  remaining activity at 1.25 µM: 103%
[2]; Well no.=6160
  remaining activity at 3.75 µM: 96.9%

## CC[C@@H](C(=O)[C@@H](C)[C@@H](O)[C@H](C)CCc1ccc(C)c(O)c1C(=O)O)[C@H]1O[C@](CC)([C@H]2CC[C@](O)(CC)[C@H](C)O2)C[C@@H]1C [Lasalocid A]
[1]; Well no.=3737
  remaining activity at 1.25 µM: 95%
[2]; Well no.=3737
  remaining activity at 3.75 µM: 95.2%

## CCNC(=O)c1[nH]nc(-c2cc(Cl)c(O)cc2O)c1-c1ccc(OC)cc1 [VER-49009]
[1]; Well no.=8622
  remaining activity at 1.25 µM: 100%
[2]; Well no.=8622
  remaining activity at 3.75 µM: 100%

## CC(C)[C@H](NC(=O)OCc1ccccc1)C(=O)N[C@@H](CC(=O)O)C(=O)CF [EP1013]
[1]; Well no.=6886
  remaining activity at 1.25 µM: 96.4%
[2]; Well no.=6886
  remaining activity at 3.75 µM: 96.6%

## COc1ccc(CCN2CCN(CCCc3ccccc3)CC2)cc1OC [SA4503 (dihydrochloride)]
[1]; Well no.=6991
  remaining activity at 1.25 µM: 101%
[2]; Well no.=6991
  remaining activity at 3.75 µM: 102%
